Assay results from article PMC7408066, “Attenuation of Inflammatory Symptoms by Icariside B2 in Carrageenan and LPS-Induced Inflammation Models via Regulation of MAPK/NF-κB Signaling Cascades” (Biomolecules, 2020).

Molecular target: T1, COX-2 (Ovis aries, UniProt P79208)
T1 construct: gene PTGS2; ovine purified COX-2
T1 sequence (P79208 17-603): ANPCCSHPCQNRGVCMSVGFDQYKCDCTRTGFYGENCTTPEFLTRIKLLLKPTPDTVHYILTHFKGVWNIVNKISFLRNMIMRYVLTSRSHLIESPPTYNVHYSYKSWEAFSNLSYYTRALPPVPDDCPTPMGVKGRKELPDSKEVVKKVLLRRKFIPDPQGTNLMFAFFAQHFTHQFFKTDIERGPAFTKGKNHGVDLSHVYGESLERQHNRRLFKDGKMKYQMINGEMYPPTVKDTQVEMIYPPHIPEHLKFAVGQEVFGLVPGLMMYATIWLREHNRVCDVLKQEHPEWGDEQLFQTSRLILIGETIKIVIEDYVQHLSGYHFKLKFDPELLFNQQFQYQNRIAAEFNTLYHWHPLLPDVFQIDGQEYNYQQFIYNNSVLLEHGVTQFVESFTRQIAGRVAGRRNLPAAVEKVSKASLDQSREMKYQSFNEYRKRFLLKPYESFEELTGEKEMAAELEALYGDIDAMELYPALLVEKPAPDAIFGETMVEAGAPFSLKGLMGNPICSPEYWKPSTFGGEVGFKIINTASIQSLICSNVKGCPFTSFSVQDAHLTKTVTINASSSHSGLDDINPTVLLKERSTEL
Assay: Cayman colorimetric COX (ovine) inhibitor screening assay, purified enzyme
Format: biochemical

Q: `CC(=O)/C=C/C12OC1(C)CC(OC1OC(CO)C(O)C(O)C1O)CC2(C)C` (stereo not shown) [ICSB, icariside B2] was tested. Which IC50 did it give?
A: The IC50 was 7.8 ± 0.26 µM.
